Measurements taken from patent US8618151B2, “Inhibitors of HCV NS5A” (Presidio Pharmaceuticals, Inc., priority 2008, dated 2013).
pEC50: −log10 of the molar value.

What follows are compounds tested on HCV genotype 1b replicon (assay: HCV replicon assay (1b_Huh-Luc/Neo-ET cell line, luciferase readout)). Settings: Hepatitis C virus, Huh-7, 72 h, read-out: Inhibition of HCV genotype 1b.
Format: cell-based
Description: Biological activity of the compounds of the invention was determined using an HCV replicon assay. The 1b_Huh-Luc/Neo-ET cell line persistently expressing a bicistronic genotype 1b replicon in Huh 7 cells was obtained from ReBLikon GMBH. This cell line was used to test compound inhibition using luciferase enzyme activity readout as a measurement of compound inhibition of replicon levels.
On Day 1 (the day after plating), each compound is added in triplicate to the cells. Plates incubated for 72 h prior to running the luciferase assay. Enzyme activity was measured using a Bright-Glo Kit (cat. number E2620) manufactured by Promega Corporation. The following equation was used to generate a percent control value for each compound. % Control=(Average Compound Value/Average Control)*100
The EC50 value was determined using GraphPad Prism and the following equation: Y=Bottom+(Top−Bottom)/1+10^((Log IC50−X)*HillSlope))
EC50 values of compounds are repeated several times in the replicon assay.
For `CNC(=O)N[C@@H](C(=O)N1CCC[C@H]1c1nc(-c2ccc3cc(-c4ccc(-c5cnc([C@@H]6CCCN6C(=O)[C@@H](NC(=O)OC)C(C)C)[nH]5)cc4)ccc3c2)c[nH]1)c1ccccc1` [14s], the pEC50 was greater than 9.00.
Work on `COC(=O)N[C@H](C(=O)N1CCC[C@H]1c1ncc(-c2ccc(-c3ccc4cc(-c5c[nH]c([C@@H]6CCCN6C(=O)[C@@H](c6ccccc6)N6CCCC6)n5)ccc4c3)cc2)[nH]1)C(C)C` [Compound 9] yielded a pEC50 greater than 9.00.
`CNC(=O)N[C@@H](C(=O)N1CCC[C@H]1c1ncc(-c2ccc(-c3ccc4cc(-c5c[nH]c([C@@H]6CCCN6C(=O)[C@@H](NC(=O)OC)C(C)C)n5)ccc4c3)cc2)[nH]1)c1ccccc1` [Compound 18] showed a pEC50 greater than 9.00.
`COC(=O)N[C@H](C(=O)N1CCC[C@H]1c1nc(-c2ccc3cc(-c4ccc(-c5cnc([C@@H]6CCCN6C(=O)[C@@H](NC(=O)OC)C(C)C)[nH]5)cc4)ccc3c2)c[nH]1)C(C)C` [compound 1] showed a pEC50 greater than 9.00.
`COC(=O)N[C@@H](C(=O)N1CCC[C@H]1c1nc(-c2ccc3cc(-c4ccc(-c5cnc([C@@H]6CCCN6C(=O)[C@H](NC(=O)OC)C(C)C)[nH]5)cc4)ccc3c2)c[nH]1)C(C)C` [compound 2] showed a pEC50 greater than 9.00.
In the case of `COC(=O)N[C@H](C(=O)N1CCC[C@H]1c1nc(-c2ccc3cc(-c4ccc(-c5cnc([C@@H]6CCCN6C(=O)[C@@H](NC(=O)OC)[C@@H](C)OC)[nH]5)cc4)ccc3c2)c[nH]1)[C@@H](C)OC` [compound 3], the pEC50 was greater than 9.00.
For `COC(=O)N[C@H](C(=O)N1CCC[C@H]1c1nc(-c2ccc3cc(-c4ccc(-c5cnc([C@@H]6CCCN6C(=O)[C@@H](NC(=O)OC)[C@@H](C)O)[nH]5)cc4)ccc3c2)c[nH]1)[C@@H](C)O` [compound 4], the pEC50 was greater than 9.00.
For `COC(=O)N[C@H](C(=O)N1CCC[C@H]1c1nc(-c2ccc3cc(-c4ccc(-c5cnc([C@@H]6CCCN6C(=O)[C@@H](c6ccccc6)N(C)C)[nH]5)cc4)ccc3c2)c[nH]1)C(C)C` [compound 5], the pEC50 was greater than 9.00.
Compound `COC(=O)N[C@H](C(=O)N1CCC[C@H]1c1ncc(-c2ccc(-c3ccc4cc(-c5c[nH]c([C@@H]6CCCN6C(=O)[C@@H](c6ccccc6)N(C)C)n5)ccc4c3)cc2)[nH]1)C(C)C` [compound 6] has a pEC50 greater than 9.00.
With `COC(=O)N[C@H](C(=O)N1CCC[C@H]1c1ncc(-c2ccc(-c3ccc4cc(-c5c[nH]c([C@@H]6CCCN6C(=O)[C@H](NC(=O)OC)c6ccccc6)n5)ccc4c3)cc2)[nH]1)C(C)C` [compound 7] the pEC50 was greater than 9.00.
Compound `COC(=O)N[C@H](C(=O)N1CCC[C@H]1c1nc(-c2ccc3cc(-c4ccc(-c5cnc([C@@H]6CCCN6C(=O)[C@H](NC(=O)OC)c6ccccc6)[nH]5)cc4)ccc3c2)c[nH]1)C(C)C` [compound 8] has a pEC50 greater than 9.00.
For `COC(=O)N[C@H](C(=O)N1CCC[C@H]1c1nc(-c2ccc3cc(-c4ccc(-c5cnc([C@@H]6CCCN6C(=O)[C@@H](c6ccccc6)N6CCCC6)[nH]5)cc4)ccc3c2)c[nH]1)C(C)C` [compound 10], the pEC50 was greater than 9.00.
`COC(=O)N[C@H](C(=O)N1CCC[C@H]1c1nc(-c2ccc3nc(-c4ccc(-c5cnc([C@@H]6CCCN6C(=O)[C@@H](NC(=O)OC)C(C)C)[nH]5)cc4)cnc3c2)c[nH]1)C(C)C` [compound 11] gave a pEC50 greater than 9.00.
With `COC(=O)N[C@H](C(=O)N1CCC[C@H]1c1ncc(-c2ccc(-c3cnc4ccc(-c5cnc([C@@H]6CCCN6C(=O)[C@@H](NC(=O)OC)C(C)C)[nH]5)cc4n3)cc2)[nH]1)C(C)C` [compound 12] the pEC50 was 8.00 to 9.00.
For `COC(=O)N[C@H](C(=O)N1CCC[C@H]1c1nc(-c2ccc3cc(-c4ccc(-c5cnc([C@@H]6CCCN6C(=O)[C@@H](NC(=O)OC)C(C)C)[nH]5)cn4)ccc3c2)c[nH]1)C(C)C` [compound 13], the pEC50 was greater than 9.00.
Compound `COC(=O)N[C@H](C(=O)N1CCC[C@H]1c1ncc(-c2ccc(-c3ccc4cc(-c5c[nH]c([C@@H]6CCCN6C(=O)[C@H](NC(=O)N6CC[C@H](O)C6)c6ccccc6)n5)ccc4c3)cc2)[nH]1)C(C)C` [compound 15] has a pEC50 greater than 9.00.
With `COC(=O)N[C@H](C(=O)N1CCC[C@H]1c1nc(-c2ccc3cc(-c4ccc(-c5cnc([C@@H]6CCCN6C(=O)[C@H](NC(=O)N6CC[C@H](O)C6)c6ccccc6)[nH]5)cc4)ccc3c2)c[nH]1)C(C)C` [compound 16] the pEC50 was greater than 9.00.
`COC(=O)N[C@H](C(=O)N1CCC[C@H]1c1nc(-c2ccc3nc(-c4ccc(-c5cnc([C@@H]6CCCN6C(=O)[C@@H](NC(=O)OC)C(C)C)[nH]5)cc4)ncc3c2)c[nH]1)C(C)C` [compound 17] gave a pEC50 greater than 9.00.
`COC(=O)N[C@H](C(=O)N1CCC[C@H]1c1nc(-c2cnc3cc(-c4ccc(-c5cnc([C@@H]6CCCN6C(=O)[C@@H](NC(=O)OC)C(C)C)[nH]5)cc4)ccc3c2)c[nH]1)C(C)C` [compound 19] showed a pEC50 greater than 9.00.
In the case of `COC(=O)N[C@H](C(=O)N1CCC[C@H]1c1ncc(-c2ccc(-c3cccc4c(-c5cnc([C@@H]6CCCN6C(=O)[C@@H](NC(=O)OC)C(C)C)[nH]5)cccc34)cc2)[nH]1)C(C)C` [compound 20], the pEC50 was greater than 9.00.
Work on `COC(=O)N[C@H](C(=O)N1CCC[C@H]1c1nc(-c2ccc3cc(-c4ccc(-c5cnc([C@@H]6CCCN6C(=O)[C@@H](NC(=O)OC)C(C)C)[nH]5)cc4)cnc3c2)c[nH]1)C(C)C` [compound 21] yielded a pEC50 greater than 9.00.
`COC(=O)N[C@H](C(=O)N1CCC[C@H]1c1nc(-c2ccc3cc(-c4ccc(-c5cnc([C@@H]6CCCN6C(=O)[C@@H](NC(=O)OC)C(C)C)[nH]5)cc4)ncc3c2)c[nH]1)C(C)C` [compound 22] gave a pEC50 greater than 9.00.
Work on `COC(=O)N[C@H](C(=O)N1CCC[C@H]1c1ncc(-c2ccc(-c3ccc4cc(-c5c[nH]c([C@@H]6CCCN6C(=O)[C@H](NC(=O)NC(C)(C)C)c6ccccc6)n5)ccc4c3)cc2)[nH]1)C(C)C` [compound 23] yielded a pEC50 greater than 9.00.
Compound `COC(=O)N[C@H](C(=O)N1CCC[C@H]1c1nc(-c2ccc3cc(-c4ccc(-c5cnc([C@@H]6CCCN6C(=O)[C@H](NC(=O)NC6CC6)c6ccccc6)[nH]5)cc4)ccc3c2)c[nH]1)C(C)C` [compound 24] has a pEC50 greater than 9.00.
For `COC(=O)NC(C(=O)N1CCC[C@H]1c1nc(-c2ccc3cc(-c4ccc(-c5cnc([C@@H]6CCCN6C(=O)[C@H](NC(=O)NC(C)(C)C)c6ccccc6)[nH]5)cc4)ccc3c2)c[nH]1)C(C)C` (stereo partly drawn) [compound 25], the pEC50 was greater than 9.00.
Work on `COC(=O)N[C@H](C(=O)N1CCC[C@H]1c1nc(-c2ccc3nc(-c4ccc(-c5cnc([C@@H]6CCCN6C(=O)[C@H](NC(=O)OC)c6ccccc6)[nH]5)cc4)ccc3c2)c[nH]1)C(C)C` [compound 26] yielded a pEC50 greater than 9.00.
`CCNC(=O)N[C@@H](C(=O)N1CCC[C@H]1c1ncc(-c2ccc(-c3ccc4cc(-c5c[nH]c([C@@H]6CCCN6C(=O)[C@@H](NC(=O)OC)C(C)C)n5)ccc4c3)cc2)[nH]1)c1ccccc1` [compound 27] was tested, and the pEC50 was greater than 9.00.
Compound `CCNC(=O)N[C@@H](C(=O)N1CCC[C@H]1c1nc(-c2ccc3cc(-c4ccc(-c5cnc([C@@H]6CCCN6C(=O)[C@@H](NC(=O)OC)C(C)C)[nH]5)cc4)ccc3c2)c[nH]1)c1ccccc1` [compound 28] has a pEC50 greater than 9.00.
Work on `COC(=O)N[C@H](C(=O)N1CCC[C@H]1c1ncc(-c2ccc(-c3ccc4cc(-c5c[nH]c([C@@H]6CCCN6C(=O)[C@H](NC(=O)NC6CC6)c6ccccc6)n5)ccc4c3)cc2)[nH]1)C(C)C` [compound 29] yielded a pEC50 greater than 9.00.
`COC(=O)N[C@H](C(=O)N1CCC[C@H]1c1nc(-c2ccc3nc(-c4ccc(-c5cnc([C@@H]6CCCN6C(=O)[C@H](NC(=O)OC(C)(C)C)c6ccccc6)[nH]5)cc4)ccc3c2)c[nH]1)C(C)C` [compound 30] showed a pEC50 greater than 9.00.
`CNC(=O)N[C@@H](C(=O)N1CCC[C@H]1c1ncc(-c2ccc(-c3ccc4cc(-c5c[nH]c([C@@H]6CCCN6C(=O)[C@@H](NC(=O)OC)C(C)C)n5)ccc4n3)cc2)[nH]1)c1ccccc1` [compound 31] showed a pEC50 greater than 9.00.
`COC(=O)N[C@H](C(=O)N1CCC[C@H]1c1nc(-c2cnc3cc(-c4ccc(-c5cnc([C@@H]6CCCN6C(=O)[C@H](NC(=O)OC)c6ccccc6)[nH]5)cc4)ccc3c2)c[nH]1)C(C)C` [compound 32] showed a pEC50 greater than 9.00.
In the case of `CCNC(=O)N[C@@H](C(=O)N1CCC[C@H]1c1ncc(-c2ccc(-c3ccc4cc(-c5c[nH]c([C@@H]6CCCN6C(=O)[C@@H](NC(=O)OC)C(C)C)n5)ccc4n3)cc2)[nH]1)c1ccccc1` [compound 33], the pEC50 was greater than 9.00.
Work on `COC(=O)N[C@H](C(=O)N1CCC[C@H]1c1nc(-c2ccc3nc(-c4ccc(-c5cnc([C@@H]6CCCN6C(=O)[C@H](NC(=O)NC6CC6)c6ccccc6)[nH]5)cc4)ccc3c2)c[nH]1)C(C)C` [compound 34] yielded a pEC50 greater than 9.00.
`COC(=O)N[C@H](C(=O)N1CCC[C@H]1c1ncc(-c2ccc(-c3ccc4cc(-c5c[nH]c([C@@H]6CCCN6C(=O)[C@H](NC(=O)OC(C)(C)C)c6ccccc6)n5)ccc4n3)cc2)[nH]1)C(C)C` [compound 35] gave a pEC50 greater than 9.00.
`CNC(=O)N[C@@H](C(=O)N1CCC[C@H]1c1nc(-c2ccc3nc(-c4ccc(-c5cnc([C@@H]6CCCN6C(=O)[C@@H](NC(=O)OC)C(C)C)[nH]5)cc4)ccc3c2)c[nH]1)c1ccccc1` [compound 36] showed a pEC50 greater than 9.00.
With `CCNC(=O)N[C@@H](C(=O)N1CCC[C@H]1c1nc(-c2ccc3nc(-c4ccc(-c5cnc([C@@H]6CCCN6C(=O)[C@@H](NC(=O)OC)C(C)C)[nH]5)cc4)ccc3c2)c[nH]1)c1ccccc1` [compound 37] the pEC50 was greater than 9.00.
`COC(=O)N[C@H](C(=O)N1CCC[C@H]1c1ncc(-c2ccc(-c3ccc4cc(-c5c[nH]c([C@@H]6CCCN6C(=O)[C@H](NC(=O)NC6CC6)c6ccccc6)n5)ccc4n3)cc2)[nH]1)C(C)C` [compound 38] gave a pEC50 greater than 9.00.
With `COC(=O)N[C@H](C(=O)N1CCC[C@H]1c1ncc(-c2ccc(-c3ccc4cc(-c5c[nH]c([C@@H]6CCCN6C(=O)[C@@H](NC(=O)OC)C6CCOCC6)n5)ccc4n3)cc2)[nH]1)C(C)C` [compound 39] the pEC50 was greater than 9.00.
